Tests used:
Experiment in all cases: relative viability (nuclei count vs DMSO), 5 days (fraction); higher = more cells survive
NCI-H647 = test system: NCI-H647
Outline: (§1)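 Relative viability equals treated-well nuclei counts divided by vehicle-well nuclei counts. Counts came from 4× images of lung cancer cell lines grown in 1536-well plates for 5 days after pin-tool dosing on the day after seeding. Dosing used one drug alone or a fixed anchor-drug dose plus five library-drug doses (not always all listed) in √10 steps, and values are medians of duplicate plates.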

NCI-H650 = test system: NCI-H650
Outline: as §1

ChaGo-K-1 = test system: ChaGo-K-1
Outline: as §1

NCI-H727 = test system: NCI-H727
Outline: as §1

NCI-H2347 = test system: NCI-H2347
Outline: as §1

NCI-H2126 = test system: NCI-H2126
Outline: as §1

NCI-H520 = test system: NCI-H520
Outline: as §1

NCI-H460 = test system: NCI-H460
Outline: as §1

HOP-62 = test system: HOP-62
Outline: as §1

HCC-44 = test system: HCC-44
Outline: as §1

NCI-H2023 = test system: NCI-H2023
Outline: as §1

NCI-H2405 = test system: NCI-H2405
Outline: as §1

EPLC-272H = test system: EPLC-272H
Outline: as §1

SW 1573 = test system: SW 1573
Outline: as §1

NCI-H2009 = test system: NCI-H2009
Outline: as §1

NCI-H1437 = test system: NCI-H1437
Outline: as §1

LOU-NH91 = test system: LOU-NH91
Outline: as §1

EMC-BAC-2 = test system: EMC-BAC-2
Outline: as §1

NCI-H441 = test system: NCI-H441
Outline: as §1

COCC1(CO)C(=O)C2CCN1CC2 (stereo unspecified) [PRIMA-1MET] + CC(C)C[C@H](NC(=O)[C@H](Cc1ccccc1)NC(=O)c1cnccn1)B(O)O [Bortezomib] (partner 0.002 µM)
relative viability (NCI-H647; first compound 0.2 µM): 1.19 | relative viability (NCI-H647; first compound 0.6325 µM): 1.06 | relative viability (NCI-H647; first compound 2 µM): 0.876 | relative viability (NCI-H647; first compound 6.325 µM): 1.17 | relative viability (NCI-H647; first compound 20 µM): 0.686 | relative viability (NCI-H650; first compound 0.2 µM): 1.11 | relative viability (NCI-H650; first compound 2 µM): 0.816 | relative viability (NCI-H650; first compound 6.325 µM): 0.508 | relative viability (NCI-H650; first compound 20 µM): 0.117 | relative viability (ChaGo-K-1; first compound 0.2 µM): 1.21 | relative viability (ChaGo-K-1; first compound 0.6325 µM): 0.83 | relative viability (ChaGo-K-1; first compound 2 µM): 1.28 | relative viability (ChaGo-K-1; first compound 6.325 µM): 0.988 | relative viability (ChaGo-K-1; first compound 20 µM): 0.32 | relative viability (NCI-H727; first compound 0.2 µM): 0.573 | relative viability (NCI-H727; first compound 0.6325 µM): 0.829 | relative viability (NCI-H727; first compound 2 µM): 0.618 | relative viability (NCI-H727; first compound 6.325 µM): 0.573 | relative viability (NCI-H727; first compound 20 µM): 0.0549 | relative viability (NCI-H2347; first compound 0.2 µM): 1.33 | relative viability (NCI-H2347; first compound 0.6325 µM): 1.11 | relative viability (NCI-H2347; first compound 6.325 µM): 1.07 | relative viability (NCI-H2347; first compound 20 µM): 0.847 | relative viability (NCI-H2126; first compound 0.2 µM): 1.21 | relative viability (NCI-H2126; first compound 0.6325 µM): 1.13 | relative viability (NCI-H2126; first compound 2 µM): 1.06 | relative viability (NCI-H2126; first compound 6.325 µM): 1.16 | relative viability (NCI-H2126; first compound 20 µM): 1.1 | relative viability (NCI-H520; first compound 0.2 µM): 0.545 | relative viability (NCI-H520; first compound 0.6325 µM): 0.503 | relative viability (NCI-H520; first compound 6.325 µM): 0.613 | relative viability (NCI-H520; first compound 20 µM): 0.113 | relative viability (NCI-H460; first compound 0.2 µM): 1.38 | relative viability (NCI-H460; first compound 0.6325 µM): 0.967 | relative viability (NCI-H460; first compound 2 µM): 1.05 | relative viability (NCI-H460; first compound 6.325 µM): 0.581 | relative viability (NCI-H460; first compound 20 µM): 0.0059 | relative viability (HOP-62; first compound 0.2 µM): 1.02 | relative viability (HOP-62; first compound 0.6325 µM): 0.648 | relative viability (HOP-62; first compound 2 µM): 0.965 | relative viability (HOP-62; first compound 6.325 µM): 0.736 | relative viability (HOP-62; first compound 20 µM): 0.443 | relative viability (HCC-44; first compound 0.2 µM): 0.971 | relative viability (HCC-44; first compound 0.6325 µM): 0.76 | relative viability (HCC-44; first compound 2 µM): 0.927 | relative viability (HCC-44; first compound 6.325 µM): 0.911 | relative viability (HCC-44; first compound 20 µM): 0.877 | relative viability (NCI-H2023; first compound 0.2 µM): 1.17 | relative viability (NCI-H2023; first compound 0.6325 µM): 0.877 | relative viability (NCI-H2023; first compound 2 µM): 0.893 | relative viability (NCI-H2023; first compound 6.325 µM): 0.951 | relative viability (NCI-H2023; first compound 20 µM): 1.02 | relative viability (NCI-H2405; first compound 0.2 µM): 0.716 | relative viability (NCI-H2405; first compound 0.6325 µM): 0.786 | relative viability (NCI-H2405; first compound 6.325 µM): 0.92 | relative viability (NCI-H2405; first compound 20 µM): 0.952 | relative viability (EPLC-272H; first compound 0.2 µM): 1.03 | relative viability (EPLC-272H; first compound 0.6325 µM): 0.847 | relative viability (EPLC-272H; first compound 2 µM): 0.966 | relative viability (EPLC-272H; first compound 6.325 µM): 1.2 | relative viability (EPLC-272H; first compound 20 µM): 0.686 | relative viability (SW 1573; first compound 0.2 µM): 1.13 | relative viability (SW 1573; first compound 0.6325 µM): 0.802 | relative viability (SW 1573; first compound 2 µM): 1.03 | relative viability (SW 1573; first compound 6.325 µM): 0.421 | relative viability (SW 1573; first compound 20 µM): 0.0222 | relative viability (NCI-H2009; first compound 0.2 µM): 0.714 | relative viability (NCI-H2009; first compound 0.6325 µM): 0.885 | relative viability (NCI-H2009; first compound 2 µM): 0.779 | relative viability (NCI-H2009; first compound 6.325 µM): 0.975 | relative viability (NCI-H2009; first compound 20 µM): 0.0124 | relative viability (NCI-H1437; first compound 0.2 µM): 0.573 | relative viability (NCI-H1437; first compound 0.6325 µM): 0.403 | relative viability (NCI-H1437; first compound 2 µM): 0.538 | relative viability (NCI-H1437; first compound 6.325 µM): 0.594 | relative viability (NCI-H1437; first compound 20 µM): 0.432 | relative viability (LOU-NH91; first compound 0.2 µM): 0.452 | relative viability (LOU-NH91; first compound 0.6325 µM): 0.403 | relative viability (LOU-NH91; first compound 2 µM): 0.541 | relative viability (LOU-NH91; first compound 6.325 µM): 0.423 | relative viability (LOU-NH91; first compound 20 µM): 0.485 | relative viability (EMC-BAC-2; first compound 0.2 µM): 1.15 | relative viability (EMC-BAC-2; first compound 0.6325 µM): 1.02 | relative viability (EMC-BAC-2; first compound 2 µM): 0.952 | relative viability (EMC-BAC-2; first compound 6.325 µM): 1.03 | relative viability (EMC-BAC-2; first compound 20 µM): 1.08 | relative viability (NCI-H441; first compound 0.2 µM): 0.387 | relative viability (NCI-H441; first compound 0.6325 µM): 0.407 | relative viability (NCI-H441; first compound 2 µM): 0.347 | relative viability (NCI-H441; first compound 6.325 µM): 0.404 | relative viability (NCI-H441; first compound 20 µM): 0.107

— the supplement of paper PMC10307832
